In paper PMC7026418, “The kinase polypharmacology landscape of clinical PARP inhibitors” (Scientific Reports, 2020):
Read-outs that look alike come from different tables or passages of the source. One block for each compound: values may come before it.

Key:
Test in all cases: biochemical
Parameters in all cases: DiscoveRx KINOMEscan active site-directed competition binding; percent of control kinase bound to immobilised ligand
[1] = target: T1, ABL1(Q252H)-phosphorylated (Homo sapiens, UniProt P00519, Q252H)
T1 construct: phosphorylated

AKT2 = AKT2 (Homo sapiens, UniProt P31751)
Sequence of AKT2 (P31751 whole entry): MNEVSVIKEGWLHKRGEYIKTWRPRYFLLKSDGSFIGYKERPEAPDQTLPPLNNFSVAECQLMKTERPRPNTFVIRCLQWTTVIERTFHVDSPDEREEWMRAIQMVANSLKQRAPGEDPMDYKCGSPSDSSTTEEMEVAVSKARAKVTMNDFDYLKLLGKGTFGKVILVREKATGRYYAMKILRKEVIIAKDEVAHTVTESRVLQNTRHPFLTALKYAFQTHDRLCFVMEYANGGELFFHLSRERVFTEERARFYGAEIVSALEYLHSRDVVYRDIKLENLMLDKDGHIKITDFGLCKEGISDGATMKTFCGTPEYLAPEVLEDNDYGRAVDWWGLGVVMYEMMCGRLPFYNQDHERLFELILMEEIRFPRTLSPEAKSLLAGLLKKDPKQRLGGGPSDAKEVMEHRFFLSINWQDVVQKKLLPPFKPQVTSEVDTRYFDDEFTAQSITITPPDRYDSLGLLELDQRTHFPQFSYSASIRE

BMPR2 = target: T2, BMPR2 (Homo sapiens, UniProt Q13873)
T2 sequence (Q13873 1-1038): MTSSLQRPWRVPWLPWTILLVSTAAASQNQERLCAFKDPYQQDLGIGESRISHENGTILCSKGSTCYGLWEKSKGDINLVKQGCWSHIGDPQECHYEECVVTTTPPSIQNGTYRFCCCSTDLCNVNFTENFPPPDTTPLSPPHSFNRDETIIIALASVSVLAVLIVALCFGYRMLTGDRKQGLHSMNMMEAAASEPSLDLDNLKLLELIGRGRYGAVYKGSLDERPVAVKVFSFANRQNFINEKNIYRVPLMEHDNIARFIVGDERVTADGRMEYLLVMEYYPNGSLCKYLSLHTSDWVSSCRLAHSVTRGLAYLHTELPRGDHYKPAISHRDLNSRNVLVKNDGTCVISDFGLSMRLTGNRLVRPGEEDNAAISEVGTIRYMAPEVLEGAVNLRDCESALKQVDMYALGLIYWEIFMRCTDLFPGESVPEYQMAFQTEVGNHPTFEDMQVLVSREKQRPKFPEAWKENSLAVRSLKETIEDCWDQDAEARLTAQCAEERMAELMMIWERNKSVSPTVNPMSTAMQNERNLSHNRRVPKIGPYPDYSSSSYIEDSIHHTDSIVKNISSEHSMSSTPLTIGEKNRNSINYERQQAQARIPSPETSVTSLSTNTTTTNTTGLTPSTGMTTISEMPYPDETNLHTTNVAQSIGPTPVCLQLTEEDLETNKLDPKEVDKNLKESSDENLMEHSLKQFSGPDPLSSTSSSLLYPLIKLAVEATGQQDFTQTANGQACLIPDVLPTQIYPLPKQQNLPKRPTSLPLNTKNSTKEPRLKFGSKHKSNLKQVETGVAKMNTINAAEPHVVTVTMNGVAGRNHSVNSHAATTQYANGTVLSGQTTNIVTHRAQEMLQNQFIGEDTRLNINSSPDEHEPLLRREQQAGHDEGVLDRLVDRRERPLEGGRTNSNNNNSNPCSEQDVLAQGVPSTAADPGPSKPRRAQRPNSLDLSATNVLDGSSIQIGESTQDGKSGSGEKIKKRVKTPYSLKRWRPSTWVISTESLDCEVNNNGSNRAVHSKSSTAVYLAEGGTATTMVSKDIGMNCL

CAMK4 = target: T3, CAMK4 (Homo sapiens, UniProt Q16566)
T3 sequence (Q16566 1-473): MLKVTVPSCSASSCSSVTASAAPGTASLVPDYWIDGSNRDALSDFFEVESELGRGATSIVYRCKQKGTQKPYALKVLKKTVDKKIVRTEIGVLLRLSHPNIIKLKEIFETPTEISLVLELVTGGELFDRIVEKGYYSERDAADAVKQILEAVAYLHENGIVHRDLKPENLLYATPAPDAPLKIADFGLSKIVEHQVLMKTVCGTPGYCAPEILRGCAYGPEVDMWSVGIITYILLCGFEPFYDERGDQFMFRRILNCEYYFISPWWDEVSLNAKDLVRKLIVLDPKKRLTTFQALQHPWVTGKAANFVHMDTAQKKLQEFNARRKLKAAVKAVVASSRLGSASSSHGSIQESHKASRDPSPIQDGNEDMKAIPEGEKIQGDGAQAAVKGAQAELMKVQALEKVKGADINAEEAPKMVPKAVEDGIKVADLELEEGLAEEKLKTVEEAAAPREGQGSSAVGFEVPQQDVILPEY

CDK4 = CDK4 (Homo sapiens, UniProt P11802)
Sequence of CDK4 (P11802 whole entry): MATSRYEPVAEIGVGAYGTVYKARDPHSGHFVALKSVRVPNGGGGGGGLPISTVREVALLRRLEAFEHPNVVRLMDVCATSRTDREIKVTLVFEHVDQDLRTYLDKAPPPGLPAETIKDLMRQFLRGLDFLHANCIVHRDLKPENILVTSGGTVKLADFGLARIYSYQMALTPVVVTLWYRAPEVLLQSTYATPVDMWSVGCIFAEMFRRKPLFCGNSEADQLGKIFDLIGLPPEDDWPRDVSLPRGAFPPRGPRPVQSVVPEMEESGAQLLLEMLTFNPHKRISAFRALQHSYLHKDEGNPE

PIP5K1C = PIP5K1C (Homo sapiens, UniProt O60331)
Sequence of PIP5K1C (O60331 whole entry): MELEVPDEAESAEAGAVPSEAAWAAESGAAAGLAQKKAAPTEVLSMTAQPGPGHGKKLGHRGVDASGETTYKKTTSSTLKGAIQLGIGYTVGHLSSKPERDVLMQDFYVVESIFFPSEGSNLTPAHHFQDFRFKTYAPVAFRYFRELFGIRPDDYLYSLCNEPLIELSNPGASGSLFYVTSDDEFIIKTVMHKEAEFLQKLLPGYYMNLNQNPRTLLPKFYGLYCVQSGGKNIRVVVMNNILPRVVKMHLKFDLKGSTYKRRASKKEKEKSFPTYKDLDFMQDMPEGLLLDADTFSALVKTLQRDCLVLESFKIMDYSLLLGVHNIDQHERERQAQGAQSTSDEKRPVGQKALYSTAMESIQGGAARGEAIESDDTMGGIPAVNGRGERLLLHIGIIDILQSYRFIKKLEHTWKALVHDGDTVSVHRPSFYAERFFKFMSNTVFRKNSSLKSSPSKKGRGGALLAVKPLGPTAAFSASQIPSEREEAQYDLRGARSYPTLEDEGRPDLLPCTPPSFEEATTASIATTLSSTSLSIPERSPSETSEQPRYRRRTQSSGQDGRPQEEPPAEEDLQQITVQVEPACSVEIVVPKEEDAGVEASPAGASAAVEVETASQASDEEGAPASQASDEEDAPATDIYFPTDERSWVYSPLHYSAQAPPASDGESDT

PRKCH = PRKCH (Homo sapiens, UniProt P24723)
Sequence of PRKCH (P24723 whole entry): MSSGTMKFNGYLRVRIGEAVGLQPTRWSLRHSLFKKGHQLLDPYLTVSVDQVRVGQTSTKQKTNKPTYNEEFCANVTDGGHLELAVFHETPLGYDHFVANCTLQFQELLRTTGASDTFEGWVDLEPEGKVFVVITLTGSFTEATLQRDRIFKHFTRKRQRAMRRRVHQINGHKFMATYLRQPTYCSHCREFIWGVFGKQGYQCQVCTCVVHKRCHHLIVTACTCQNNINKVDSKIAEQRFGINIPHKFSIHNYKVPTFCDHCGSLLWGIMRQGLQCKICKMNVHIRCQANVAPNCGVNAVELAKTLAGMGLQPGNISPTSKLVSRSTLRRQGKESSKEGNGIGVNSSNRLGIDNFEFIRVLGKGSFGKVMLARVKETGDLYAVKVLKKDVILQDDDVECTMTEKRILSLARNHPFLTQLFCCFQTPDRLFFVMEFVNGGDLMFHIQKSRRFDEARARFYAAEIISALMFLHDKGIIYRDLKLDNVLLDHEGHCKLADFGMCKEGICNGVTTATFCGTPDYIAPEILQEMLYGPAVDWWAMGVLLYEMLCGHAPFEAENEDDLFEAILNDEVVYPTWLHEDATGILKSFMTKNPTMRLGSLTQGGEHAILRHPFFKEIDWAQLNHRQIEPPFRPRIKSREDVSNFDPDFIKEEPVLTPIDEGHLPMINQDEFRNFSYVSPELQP

TXK = target: T4, TXK (Homo sapiens, UniProt P42681)
T4 sequence (P42681 1-527): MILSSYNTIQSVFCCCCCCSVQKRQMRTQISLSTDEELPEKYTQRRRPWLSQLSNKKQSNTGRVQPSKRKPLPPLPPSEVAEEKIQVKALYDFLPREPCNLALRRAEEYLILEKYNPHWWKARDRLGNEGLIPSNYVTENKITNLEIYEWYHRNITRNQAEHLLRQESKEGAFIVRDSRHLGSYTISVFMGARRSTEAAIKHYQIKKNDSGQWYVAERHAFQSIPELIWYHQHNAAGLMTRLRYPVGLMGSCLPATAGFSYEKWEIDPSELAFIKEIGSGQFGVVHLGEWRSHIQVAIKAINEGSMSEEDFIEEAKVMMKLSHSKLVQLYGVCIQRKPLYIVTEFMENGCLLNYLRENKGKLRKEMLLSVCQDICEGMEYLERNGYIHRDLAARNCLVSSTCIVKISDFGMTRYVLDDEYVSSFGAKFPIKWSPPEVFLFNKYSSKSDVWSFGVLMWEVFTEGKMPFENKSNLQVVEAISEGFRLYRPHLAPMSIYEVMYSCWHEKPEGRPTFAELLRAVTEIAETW

[2] = read-out: Niraparib (MK-4827) / %Ctrl @ 10000nM
[3] = read-out: Olaparib / %Ctrl @ 10000nM
[4] = read-out: Rucaparib / %Ctrl @ 10000nM, binding competition, % of control
[5] = read-out: Talazoparib (BMN 673) / %Ctrl @ 10000nM

Structure (SMILES): NC(=O)c1cccc2cn(-c3ccc([C@@H]4CCCNC4)cc3)nc12 [Niraparib]
percent of control binding at 10 µM [1, 2]: 51%
percent of control binding at 10 µM (AKT2; [2]): 93%
percent of control binding at 10 µM (BMPR2; [2]): 96%
percent of control binding at 10 µM (CAMK4; [2]): 100%
percent of control binding at 10 µM (CDK4; [2]): 100%
percent of control binding at 10 µM (PIP5K1C; [2]): 83%
percent of control binding at 10 µM (PRKCH; [2]): 85%
percent of control binding at 10 µM (TXK; [2]): 86%

percent of control binding at 10 µM [1, 3]: 71%
percent of control binding at 10 µM (AKT2; [3]): 79%
percent of control binding at 10 µM (BMPR2; [3]): 80%
percent of control binding at 10 µM (CAMK4; [3]): 93%
percent of control binding at 10 µM (CDK4; [3]): 85%
percent of control binding at 10 µM (PIP5K1C; [3]): 100%
percent of control binding at 10 µM (PRKCH; [3]): 94%
percent of control binding at 10 µM (TXK; [3]): 86%
Structure (SMILES): O=C(c1cc(Cc2n[nH]c(=O)c3ccccc23)ccc1F)N1CCN(C(=O)C2CC2)CC1 [Olaparib]

percent of control binding at 10 µM [1, 4]: 72%
percent of control binding at 10 µM (AKT2; [4]): 87%
percent of control binding at 10 µM (BMPR2; [4]): 83%
percent of control binding at 10 µM (CAMK4; [4]): 94%
percent of control binding at 10 µM (CDK4; [4]): 94%
percent of control binding at 10 µM (PIP5K1C; [4]): 100%
percent of control binding at 10 µM (PRKCH; [4]): 94%
percent of control binding at 10 µM (TXK; [4]): 100%
Structure (SMILES): CNCc1ccc(-c2[nH]c3cc(F)cc4c3c2CCNC4=O)cc1 [Rucaparib]

percent of control binding at 10 µM [1, 5]: 100%
percent of control binding at 10 µM (AKT2; [5]): 84%
percent of control binding at 10 µM (BMPR2; [5]): 100%
percent of control binding at 10 µM (CAMK4; [5]): 83%
percent of control binding at 10 µM (CDK4; [5]): 100%
percent of control binding at 10 µM (PIP5K1C; [5]): 100%
percent of control binding at 10 µM (PRKCH; [5]): 98%
percent of control binding at 10 µM (TXK; [5]): 91%
Structure (SMILES): Cn1ncnc1[C@H]1c2n[nH]c(=O)c3cc(F)cc(c23)N[C@@H]1c1ccc(F)cc1 [Talazoparib]
